# How the values were obtained:
# SCC2095 cells [1] = assay: Annexin V-FITC/PI flow cytometric apoptosis analysis; type: cell-based, human; settings: for apoptosis rate: 48 h
# Experimental: (§1) Cells (2 × 10^5) were treated with tested compounds in 6-well plates for 24 h or 48 h, then washed with ice-cold PBS twice and harvested with trypsin. Cells were incubated with 5 µL Annexin V- FITC/PI (BD Pharmingen, San Diego) for 15 min in the dark condition. Then, the cells were measured by BD FACSCanto flow cytometer (BD, Franklin Lakes, NJ). For ROS determination, DMSO or H2O2 or compound 7 g-treated cells were stained with the ROS probe (DCFH-DA; 5 µM) and detected the DCFH-DA fluorescence.
# HDAC7 = target: T1, HDAC7 (Homo sapiens, UniProt Q8WUI4); assay: HDAC inhibition assay, HDAC7
# T1 sequence (Q8WUI4 1-952): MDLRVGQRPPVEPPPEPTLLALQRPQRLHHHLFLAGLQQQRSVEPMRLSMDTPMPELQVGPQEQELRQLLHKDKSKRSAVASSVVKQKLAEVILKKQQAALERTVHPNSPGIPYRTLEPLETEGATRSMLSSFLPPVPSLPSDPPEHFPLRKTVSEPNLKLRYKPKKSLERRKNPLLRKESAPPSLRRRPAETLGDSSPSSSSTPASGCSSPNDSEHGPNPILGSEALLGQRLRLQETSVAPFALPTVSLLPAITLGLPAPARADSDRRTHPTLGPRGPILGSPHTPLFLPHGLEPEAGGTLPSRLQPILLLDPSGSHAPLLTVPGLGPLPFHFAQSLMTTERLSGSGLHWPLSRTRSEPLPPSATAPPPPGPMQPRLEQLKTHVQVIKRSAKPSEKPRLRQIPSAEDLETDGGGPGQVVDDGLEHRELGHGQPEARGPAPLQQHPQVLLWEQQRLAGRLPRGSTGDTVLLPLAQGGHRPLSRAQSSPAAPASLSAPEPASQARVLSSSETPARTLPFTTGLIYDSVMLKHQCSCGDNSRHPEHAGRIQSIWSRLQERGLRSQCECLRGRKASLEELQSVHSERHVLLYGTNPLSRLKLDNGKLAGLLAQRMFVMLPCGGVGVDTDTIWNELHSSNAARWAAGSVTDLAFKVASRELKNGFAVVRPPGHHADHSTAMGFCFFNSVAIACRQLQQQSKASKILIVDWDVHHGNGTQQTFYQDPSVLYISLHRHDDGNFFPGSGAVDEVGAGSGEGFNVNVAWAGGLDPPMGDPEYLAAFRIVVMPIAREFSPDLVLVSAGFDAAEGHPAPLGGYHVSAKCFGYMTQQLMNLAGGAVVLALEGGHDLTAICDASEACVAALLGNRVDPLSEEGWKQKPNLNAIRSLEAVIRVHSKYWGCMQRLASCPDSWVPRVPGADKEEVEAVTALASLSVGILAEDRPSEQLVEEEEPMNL
# SCC2095 cells [2] = assay: ROS determination by flow cytometry (DCFH-DA probe); type: cell-based, human; settings: SCC2095, 12 h or 24 h
# Experimental: as §1
# [3] = Cell viability (MTT) assay, normal human lung fibroblasts; type: cell-based; settings: normal human lung fibroblasts (NHLF, CC-2512); normal human lung fibroblast cells; read-out: IC50 of cytotoxicity against normal cells
# Source text: Human breast cancer MDA-MB-231 cells and gastric cancer SCM-1 cells were purchased from the American Type Culture Collection (Manasas, VA, USA). SCC2095 human oral cancer cells were kindly provided by Professor Susan R. Mallery (The Ohio State University). Normal human lung fibroblasts (NHLFs; CC-2512) were purchased from the Lonza (Walkersville, MD, USA). SCM-1 cells were maintained in RPMI-1640 medium (Invitrogen, Carlsbad, CA, USA); MDA-MB-231 and SCC2095 cells were maintained in DMEM/F12 (Invitrogen); and NHLFs were maintained in FGM™-2 medium (Lonza) with 2% serum, supplemented with 10% heat-inactivated foetal bovine serum (FBS; Gibco, Grand Island, NY, USA). All cells were cultured at 37 °C in a humidified incubator containing 5% CO2 and 95% relative humidity.
# To assess cell viability, cells were seeded in three replicates into 96-well plates at a density of 5×10^3/well for 24 h following incubation with compounds at the indicated concentrations. Then, cell viability was assessed with 3–(4,5-dimethylthiazol-2-yl)-2,5-diphenyltetrazolium bromide (MTT) solution (0.5 mg/mL) for 4h as described previously. After removing the medium, 200 µL of DMSO was added, and then the absorbance was measured at 570 nm using a plate reader (BMG LABTECH, Germany).
# SCC2095 cells [4] = assay: Western blotting of caspase- and HDAC-related proteins; type: cell-based, human; settings: western blot
# Experimental: The protein expression was performed as previously described. Proteins were resolved on 10% SDS-PAGE, then transferred to PVDF (Bio-Rad) membranes. After blocking with 5% skimmed milk in PBS containing 0.1% Tween 20, the membranes were probed with primary antibodies against interest target proteins at 4 °C overnight. The following primary antibodies were used: […], cleaved caspase 9, acetyl α-tubulin, Hsp90, Histone H2A.X, p38, p-^180Thr/^182Tyr p38, PPARγ, and p21 were purchased from Cell Signalling Technologies (Beverly, MA, USA); pro-caspase 8, Millipore; β-actin, Sigma-Aldrich (St. Louis, MO, USA). Then, the immunoblots were washed and exposed to HRP-conjugated secondary antibodies at room temperature for 1 h. The immunoblots were examined by enhanced chemiluminescence.
# HDAC4 protein = assay: Surface plasmon resonance binding to HDAC4; settings: Figure S1
# Experimental: HDAC4 protein was crosslinked by EDC (1-ethyl-3-(3-dimethylaminopropyl) carbodiimide) and NHS (N-hydroxysuccinimide). The crosslinking reagent and protein were co- incubated 30 minutes at 25°C.
# Binding reactivity to mutant HDAC4 protein was performed by SPR (OpenSPR, Nicoyalife). The recombinant HDAC4 protein was crosslinked by EDC/NHC regent, followed by dilution to a concentration of 50 μg/mL with PBS and immobilized onto a amine sensor chip (Nicoyalife). The analytes were tested at various dilutions in PBST, and the flow rate was maintained at 20 μL/min during analysis. The amine sensor chip was regenerated with 10 mM glycine−HCl, pH2.5. The results were analyzed using TraceDrawer software (Nicoyalife).
structure (smiles),measurement,setting,value
"NC(=NO)c1ccc2c(c1)N(Cc1ccc(C(=O)NO)c(-c3ccccc3)c1)c1ccccc1S2 [Compound 7g, N-Hydroxy-4-[2-(N’-hydroxycarbamimidoyl)-10H-phenothiazin-10-yl]methyl-2-phenylbenzamide]",apoptosis rate,SCC2095 cells [1]; 1 µM,29.2%
same,apoptosis rate,SCC2095 cells [1]; 2.5 µM,35.9%
same,apoptosis rate,SCC2095 cells [1]; 5 µM,44.4%
same,apoptosis rate,SCC2095 cells [1]; 7.5 µM,78.2%
same,percentage of apoptotic cells,"SCC2095 cells [1]; 10 µM, 24 h",83.6%
same,apoptosis rate,SCC2095 cells [1]; 10 µM,87.1%
same,IC50,HDAC7,0.19 ± 0.04 µM
same,ROS generation,SCC2095 cells [2],increased
same,IC50,[3],8 µM
same,levels of Hsp90,"SCC2095 cells [4]; SCC2095, 24 h",increased
same,levels of PPARγ,"SCC2095 cells [4]; SCC2095, 24 h",increased
same,levels of cleaved caspase 9,"SCC2095 cells [4]; SCC2095, 24 h",up-regulated
same,levels of p21,"SCC2095 cells [4]; SCC2095, 24 h",increased
same,levels of pro-caspase 8,"SCC2095 cells [4]; SCC2095, 24 h",down-regulated
same,phosphorylation of Histone H2A.X,"SCC2095 cells [4]; SCC2095, DNA damage biomarker",increased
same,phosphorylation of p38,"SCC2095 cells [4]; SCC2095, dose-dependent",up-regulated
same,SPR binding to HDAC4 protein,HDAC4 protein,can bind to HDAC4 protein

# — PMC11423540, “Synthesis and biological evaluation of ortho-phenyl phenylhydroxamic acids containing phenothiazine with improved selectivity for class IIa histone deacetylases” (Journal of Enzyme Inhibition and Medicinal Chemistry, 2024)
